Data from patent US4734411A, “Pyrrolizidine compounds, salts thereof, process for the preparation of same and pharmaceutical agents comprising same” (Sanwa Kagaku Kenkyusho Co., Ltd., priority 1985, dated 1988).
Read-outs that look alike come from different tables or passages of the source.

What was measured:
[1] = tested on: pupil diameter; test: Influence on pupil diameter of mice (mydriatic effect); type: in vivo, ICR mice, male; conditions: oral, 30 minutes
Procedure: (Influence on pupil diameter of mice)
Some pyrrolizidine compounds according to the invention were tested to evaluate their influence on the pupil diameter of mice, in comparison with Pirenzepine and Atropine as controls.
The animals were deprived of food for 18 hours prior to the test. After 30 minutes from oral administration of the compounds, the pupil width was measured by a micrometer. Results are shown in following Table 3 in terms of ratio of pupil diameter and mydriatic effect.

[2] = tested on: stress induced gastric ulcer; test: Stress ulcer in rats (restraint and water immersion); type: in vivo, Wistar rats, male; conditions: for Inhibition (%): an hour before the restraint; for ED50: Rattus norvegicus
Procedure: Some pyrrolizidine compounds according to the invention were tested to evaluate their anti-ulcer activity in comparison with Pirenzepine and Cimetidine as controls, in accordance with the procedure proposed by Takagi et al.["Japan. J. Pharmacol." Vol. 18, page 9 (1968)].
Wistar rats of male sex were used, each having the body weight of 138 to 207 g. The animals were deprived of food for 24 hours prior to the test. They were immobilized in a restraint cage and immersed for 7 hours to the height of the xiphoid in a water bath kept at 23±1° C. After inflation with 10 ml of 1% formalin, the isolated stomach was opened along the greater curvature. The ulcer index was determined as the sum of the length (mm) of each erosion per rat. The compounds were administered orally an hour before the restraint.

[3] = tested on: aspirin induced gastric ulcer; test: Aspirin ulcer in rats (pylorus ligated); type: in vivo, Sprague-Dawley rats, male; conditions: for Inhibition (%): an hour before pylorus ligation and aspirin (100 mg/kg); for ED50: Rattus norvegicus
Procedure: Some pyrrolizidine compounds according to the invention were tested to evaluate their anti-ulcer activity on Aspirin ulcer, in comparison with Pirenzepine and Cimetidine as controls, in accordance with the procedure proposed by Okabe et al. ["Japan. J. Pharmacol." Vol. 24, page 363 (1974)].
Sprague-Dawley rats of male sex were used, each having the body weight of 146 to 210 g. The animals were deprived of food for 24 hours prior to the test. After an hour from oral administration of the compounds, the pylorus was ligated under anesthesia by ethyl ether and aspirin (100 mg/kg) suspended with 5% gum arabic was orally administered. After 7 hours from the administration, the stomach was isolated and inflated with 10 ml of 1% formalin. The ulcer index was determined as the sum of the length (mm) of each erosion per rat.
Results are shown in following Table 2 in terms of percent inhibition of anti-ulcer activity with respect to concentrations of 10 to 100 mg/kg.

[4] = in words, related arts; cited from earlier work
[5] = Acute toxicity in mice; type: in vivo; conditions: mouse, in vivo; oral, 7 days, 5 animals, Litchfield-Wilcoxon's method
Procedure: (§1) Some pyrrolizidine compounds according to the invention were tested to evaluate their acute toxicity in mice.
(§2) ICR mice of male sex were used, each having the body weight of 24.8 to 30.0 g. The compounds were orally administered and general condition, behavior and mortality were observed daily throughout the experimental period of time (7 days). At end of the period, the surviving animals were sacrificed. Dead animals were sacrificed at the time when they were recognized to be dead. LD50 value was calculated in accordance with Litchfield-Wilcoxon's method.

[6] = tested on: ICR mice; test: Acute toxicity in mice; type: in vivo; conditions: oral, 7 days, of 5 animals; numeral in parenthesis
Procedure: as §1, §2

[7] = oral, concentration of inhibitor which gives 50% inhibition, read-out: ED50
[8] = 30 mg/kg, Atropine (1 mg/kg) = 1.00

Compound | Rate of pupil dia. (pre. = 1) ([1]; 1 mg/kg) | Ratio of mydriasis ([1]; 1 mg/kg) | Inhibition (%) ([2]; 10 mg/kg, oral) | Inhibition (%) ([2]; 100 mg/kg, oral) | ED50 ([2]; po) [mg/kg] | Inhibition (%) ([3]; 10 mg/kg, oral) | Inhibition (%) ([3]; 100 mg/kg, oral) | ED50 ([3]; po) [mg/kg] | side effects [4] | ED50 [2, 7] [mg/kg] | ED50 [3, 7] [mg/kg] | Rate of pupil dia. (pre. = 1) ([1]; 30 mg/kg) | Ratio of mydriasis [1, 8] | LD50 at 168 h [5] [mg/kg] | number of dead animals [6]
CN1[C@@H]2CC[C@H]1C[C@@H](OC(=O)C(CO)c1ccccc1)C2 (stereo partly drawn) [Atropine, reference compound] | 4.7 | 1.00 | – | – | – | – | – | – | – | – | – | – | – | – | –
CN/C(=N/CCSCc1nc[nH]c1C)NC#N [Cimetidine, reference compound] | – | – | 16.9 | 81.5 | 33.8 | 12.2 | 69.6 | 50.4 | side effects of forming a perforation in ulcer and strengthening a delayed hypersensitive reaction | – | – | – | – | – | –
c1ccc2c(c1)Sc1ccccc1N2CC12CCCN1CCC2 [Example 1, 10-(7a-Pyrrolizidinylmethyl)phenothiazine] | – | – | 55.4 | 92.5 | – | 58.3 | 63.5 | – | – | < 10 | < 10 | 2.7 | 0.57 | > 1000 | –
c1ccc2c(c1)Sc1ccccc1N2CCC12CCCN1CCC2 [Example 2, 10-[2-(7a-Pyrrolizidinyl)ethyl)phenothiazine] | – | – | 38.6 | 87.0 | – | 53.3 | 73.2 | – | – | 16.4 | < 10 | 4.6 | 0.98 | < 1000 | 4
CN(C)S(=O)(=O)c1ccc2c(c1)N(CC13CCCN1CCC3)c1ccccc1S2 [Example 3, 2-(N,N-Dimethylsulfamoyl)-10-(7a-pyrrolizidinylmethyl)phenothiazine] | – | – | 49.4 | 65.6 | – | 19.7 | 36.5 | – | – | 11.8 | > 100 | 1.1 | 0.23 | > 1000 | –
C[Si](C)(C)c1cccc2c1N(CC13CCCN1CCC3)c1ccccc1S2 [Example 4, 10-(7a-Pyrrolizidinylmethyl)-1-trimethylsilylphenothiazine] | – | – | – | – | – | 17.7 | 65.6 | 60.4 | – | – | – | – | – | > 1000 | –
O=C1Nc2cccnc2N(C(=O)C23CCCN2CCC3)c2ccccc21 [Example 5, 5,11-Dihydro-11-(pyrrolizidine-7a-carbonyl)-6H-pyrido(2,3-b)(1,4)-benzodiazepin-6-one] | – | – | 31.7 | 80.2 | – | 23.6 | 82.2 | – | – | 23.6 | 27.9 | 0.9 | 0.19 | > 1000 | 1
CN1CCN(CC(=O)N2c3ccccc3C(=O)Nc3cccnc32)CC1 [Pirenzepine, reference compound] | – | – | 7.2 | 98.8 | – | 22.1 | 90.5 | – | side reactions due to supression of muscarinic receptor, although those are somewhat weak | 26.3 | 23.7 | 3.4 | 0.72 | – | –
